Data published in PubChem BioAssay AID1259407 (Chemical Carcinogenesis Research Information System (CCRIS), 2018).
Active and inactive are the calls of the source. How the calls were made is not given here.

System: CCRIS mutagenicity, Ames/micronucleus/aberration tests
Assay: CCRIS mutagenicity studies
[1] = Test System: AMES SALMONELLA TYPHIMURIUM, Strain/Indicator: TA98, Metabolic Activation: NONE, Method: STANDARD PLATE
[2] = Test System: AMES SALMONELLA TYPHIMURIUM, Strain/Indicator: TA98, Metabolic Activation: RAT, LIVER, S-9, AROCLOR 1254, Method: STANDARD PLATE
[3] = Test System: AMES SALMONELLA TYPHIMURIUM, Strain/Indicator: TA100, Metabolic Activation: NONE, Method: STANDARD PLATE
[4] = Test System: AMES SALMONELLA TYPHIMURIUM, Strain/Indicator: TA100, Metabolic Activation: RAT, LIVER, S-9, AROCLOR 1254, Method: STANDARD PLATE
[5] = Test System: AMES SALMONELLA TYPHIMURIUM, Strain/Indicator: TA1535, Metabolic Activation: NONE, Method: STANDARD PLATE
[6] = Test System: AMES SALMONELLA TYPHIMURIUM, Strain/Indicator: TA1537, Metabolic Activation: NONE, Method: STANDARD PLATE
[7] = Test System: AMES SALMONELLA TYPHIMURIUM, Strain/Indicator: TA1538, Metabolic Activation: NONE, Method: STANDARD PLATE
[8] = Test System: AMES SALMONELLA TYPHIMURIUM, Strain/Indicator: TA98, Metabolic Activation: NONE, Method: PREINCUBATION

C=CC(=O)OCCOCCOC(=O)C=C
mutagenic call [1]: inactive; negative
mutagenic call [2]: inactive; negative
mutagenic call (Test System: AMES SALMONELLA TYPHIMURIUM, Strain/Indicator: TA98, Metabolic Activation: RAT, LIVER, S-9, SODIUM PHENOBARBITAL, Method: STANDARD PLATE): inactive; negative
mutagenic call [3]: inactive; negative
mutagenic call [4]: inactive; negative
mutagenic call (Test System: AMES SALMONELLA TYPHIMURIUM, Strain/Indicator: TA100, Metabolic Activation: RAT, LIVER, S-9, SODIUM PHENOBARBITAL, Method: STANDARD PLATE): inactive; negative
mutagenic call [5]: inactive; negative
mutagenic call (Test System: AMES SALMONELLA TYPHIMURIUM, Strain/Indicator: TA1535, Metabolic Activation: RAT, LIVER, S-9, AROCLOR 1254, Method: STANDARD PLATE): inactive; negative
mutagenic call (Test System: AMES SALMONELLA TYPHIMURIUM, Strain/Indicator: TA1535, Metabolic Activation: RAT, LIVER, S-9, SODIUM PHENOBARBITAL, Method: STANDARD PLATE): inactive; negative
mutagenic call [6]: inactive; negative
mutagenic call (Test System: AMES SALMONELLA TYPHIMURIUM, Strain/Indicator: TA1537, Metabolic Activation: RAT, LIVER, S-9, AROCLOR 1254, Method: STANDARD PLATE): inactive; negative
mutagenic call (Test System: AMES SALMONELLA TYPHIMURIUM, Strain/Indicator: TA1537, Metabolic Activation: RAT, LIVER, S-9, SODIUM PHENOBARBITAL, Method: STANDARD PLATE): inactive; negative
mutagenic call [7]: inactive; negative
mutagenic call (Test System: AMES SALMONELLA TYPHIMURIUM, Strain/Indicator: TA1538, Metabolic Activation: RAT, LIVER, S-9, AROCLOR 1254, Method: STANDARD PLATE): inactive; negative
mutagenic call (Test System: AMES SALMONELLA TYPHIMURIUM, Strain/Indicator: TA1538, Metabolic Activation: RAT, LIVER, S-9, SODIUM PHENOBARBITAL, Method: STANDARD PLATE): inactive; negative

O=[N+]([O-])c1c(-c2ccc(Cl)cc2)nc2n1CCS2
mutagenic call [1]: inactive; negative
mutagenic call [3]: active; positive
mutagenic call [5]: inactive; negative
mutagenic call [6]: active; positive
mutagenic call [7]: inactive; negative

CCOC(=O)c1[nH]c2ccccc2c1N=Cc1ccc([N+](=O)[O-])cc1
mutagenic call (Test System: AMES SALMONELLA TYPHIMURIUM, Strain/Indicator: TA97, Metabolic Activation: NONE, Method: STANDARD PLATE): inactive; negative
mutagenic call (Test System: AMES SALMONELLA TYPHIMURIUM, Strain/Indicator: TA97, Metabolic Activation: RAT, LIVER, S-9, AROCLOR 1254, Method: STANDARD PLATE): inactive; negative
mutagenic call [1]: inactive; negative
mutagenic call [2]: active; positive
mutagenic call [3]: inactive; negative
mutagenic call [4]: inactive; negative
mutagenic call (Test System: AMES SALMONELLA TYPHIMURIUM, Strain/Indicator: TA102, Metabolic Activation: NONE, Method: STANDARD PLATE): inactive; negative
mutagenic call (Test System: AMES SALMONELLA TYPHIMURIUM, Strain/Indicator: TA102, Metabolic Activation: RAT, LIVER, S-9, AROCLOR 1254, Method: STANDARD PLATE): inactive; negative

Cc1ccc2cccc([N+](=O)[O-])c2c1
mutagenic call [8]: active; positive

CCN(CO)N=O
mutagenic call (Test System: CHINESE HAMSTER V-79, Strain/Indicator: V-79/OUABAIN, Metabolic Activation: NONE): active; positive

Nc1ccc2c(c1)Cc1cc([N+](=O)[O-])ccc1-2
mutagenic call (Test System: AMES SALMONELLA TYPHIMURIUM, Strain/Indicator: TA98, Metabolic Activation: HAMSTER, LIVER, S-9, 3-METHYLCHOLANTHRENE, Method: STANDARD PLATE): active; positive
mutagenic call (Test System: AMES SALMONELLA TYPHIMURIUM, Strain/Indicator: TA98, Metabolic Activation: HAMSTER, LIVER, S-9, Method: STANDARD PLATE): active; positive

CC(Br)(CCl)CBr (configuration not stated)
mutagenic call (Test System: AMES SALMONELLA TYPHIMURIUM, Strain/Indicator: TA98, Metabolic Activation: NONE, Method: FLASK ASSAY): inactive; negative
mutagenic call (Test System: AMES SALMONELLA TYPHIMURIUM, Strain/Indicator: TA98, Metabolic Activation: RAT, LIVER, S-9, AROCLOR 1254, Method: FLASK ASSAY): inactive; negative
mutagenic call (Test System: AMES SALMONELLA TYPHIMURIUM, Strain/Indicator: TA100, Metabolic Activation: NONE, Method: FLASK ASSAY): inactive; negative
mutagenic call (Test System: AMES SALMONELLA TYPHIMURIUM, Strain/Indicator: TA100, Metabolic Activation: RAT, LIVER, MICROSOMES, PHENOBARBITAL, Method: PREINCUBATION): inactive; negative
mutagenic call (Test System: AMES SALMONELLA TYPHIMURIUM, Strain/Indicator: TA100, Metabolic Activation: RAT, LIVER, MICROSOMES, Method: PREINCUBATION): inactive; negative
mutagenic call (Test System: AMES SALMONELLA TYPHIMURIUM, Strain/Indicator: TA100, Metabolic Activation: RAT, LIVER, S-9, AROCLOR 1254, Method: FLASK ASSAY): inactive; negative
mutagenic call (Test System: AMES SALMONELLA TYPHIMURIUM, Strain/Indicator: TA1535, Metabolic Activation: NONE, Method: FLASK ASSAY): inactive; negative
mutagenic call (Test System: AMES SALMONELLA TYPHIMURIUM, Strain/Indicator: TA1535, Metabolic Activation: RAT, LIVER, S-9, AROCLOR 1254, Method: FLASK ASSAY): inactive; negative
mutagenic call (Test System: AMES SALMONELLA TYPHIMURIUM, Strain/Indicator: TA1537, Metabolic Activation: NONE, Method: FLASK ASSAY): inactive; negative
mutagenic call (Test System: AMES SALMONELLA TYPHIMURIUM, Strain/Indicator: TA1537, Metabolic Activation: RAT, LIVER, S-9, AROCLOR 1254, Method: FLASK ASSAY): inactive; negative
mutagenic call (Test System: AMES SALMONELLA TYPHIMURIUM, Strain/Indicator: TA1538, Metabolic Activation: NONE, Method: FLASK ASSAY): inactive; negative
mutagenic call (Test System: AMES SALMONELLA TYPHIMURIUM, Strain/Indicator: TA1538, Metabolic Activation: RAT, LIVER, S-9, AROCLOR 1254, Method: FLASK ASSAY): inactive; negative
mutagenic call (Test System: MOUSE LYMPHOMA, Strain/Indicator: L5178Y (TK+/TK-), Metabolic Activation: NONE, Method: SUSPENSION/PLATE): active; positive
mutagenic call (Test System: MOUSE LYMPHOMA, Strain/Indicator: L5178Y (TK+/TK-), Metabolic Activation: RAT, LIVER, S-9, AROCLOR 1254, Method: SUSPENSION/PLATE): inactive; negative

O=[N+]([O-])c1ccc2c(ccc3ccccc32)c1
mutagenic call (Test System: AMES SALMONELLA TYPHIMURIUM, Strain/Indicator: TA98(1,8-DNP6), Metabolic Activation: NONE, Method: STANDARD PLATE): active; positive
mutagenic call (Test System: AMES SALMONELLA TYPHIMURIUM, Strain/Indicator: TA98(NR), Metabolic Activation: NONE, Method: STANDARD PLATE): active; positive
mutagenic call [8]: active; positive
mutagenic call [1]: active; positive
mutagenic call (Test System: AMES SALMONELLA TYPHIMURIUM, Strain/Indicator: TA98, Metabolic Activation: RAT, LIVER, S-9, PCB (10%), Method: PREINCUBATION): active; positive
mutagenic call (Test System: AMES SALMONELLA TYPHIMURIUM, Strain/Indicator: TA7001, Metabolic Activation: NONE, Method: PREINCUBATION): active; positive
mutagenic call (Test System: AMES SALMONELLA TYPHIMURIUM, Strain/Indicator: TA7002, Metabolic Activation: NONE, Method: PREINCUBATION): active; positive
mutagenic call (Test System: AMES SALMONELLA TYPHIMURIUM, Strain/Indicator: TA7003, Metabolic Activation: NONE, Method: PREINCUBATION): active; positive
mutagenic call (Test System: AMES SALMONELLA TYPHIMURIUM, Strain/Indicator: TA7004, Metabolic Activation: NONE, Method: PREINCUBATION): active; positive
mutagenic call (Test System: AMES SALMONELLA TYPHIMURIUM, Strain/Indicator: TA7005, Metabolic Activation: NONE, Method: PREINCUBATION): active; positive
mutagenic call (Test System: AMES SALMONELLA TYPHIMURIUM, Strain/Indicator: TA7006, Metabolic Activation: NONE, Method: PREINCUBATION): active; positive
